Values of other authors as cited in patent US8110226B2, “Drug formulations having inert sealed cores” (Mylan Pharmaceuticals Inc., priority 2007, dated 2012).

Details: first pKa of non-polymeric pH modifying acid

pKa: 4.14
Structure (SMILES): CC(O)C(=O)O (stereo not shown) [Lactic Acid]
